This passage reports mass density, Normal boiling temperature and refractive index results from the NIST ThermoML archive (doi:10.1016/j.fluid.2013.03.029).

Broadly, the mass density is mass per unit of volume. Usually refractive index stands for the speed of light in vacuum divided by its phase velocity in the sample.

Numbers after ± are expanded uncertainties.

For data set [1] the following is noted: Liquid; for mass density: 293.15 K, 101.33 kPa, Vibrating tube method; for Normal boiling temperature: Ebulliometric method (Recirculating still).
Data set [2] is described as follows: refractive index (Na D-line) (dimensionless). Particulars: 293.15 K; 101.33 kPa; Liquid; Standard Abbe refractometry.

Consider `CC(C)CO` [2-methyl-1-propanol], for which, in data set [1], the mass density is 801.7 ± 1 kg/m3 and the Normal boiling temperature is 107.00 ± 0.5 °C. Besides, the refractive index in data set [2] is 1.3955 ± 0.0008.

Turning to `CCO` [ethanol], in data set [1], the mass density turned out to be 790 ± 1 kg/m3 and the Normal boiling temperature was 78.40 ± 0.5 °C. Further, in data set [2], the refractive index was 1.3616 ± 0.0008.

As to `CCCCCO` [pentan-1-ol], in data set [1], the mass density is given as 813.7 ± 1 kg/m3 and the Normal boiling temperature turned out to be 137.80 ± 0.51 °C. Also, the refractive index in data set [2] came out at 1.4087 ± 0.0008.

Turning to `O` [water], in data set [1], the mass density is recorded as 998.4 ± 1 kg/m3 and the Normal boiling temperature came to 100.1 ± 0.5 °C. The refractive index in data set [2] is on record as 1.3328 ± 0.0008.
